The values below come from PMC9415015, “CK2 Inhibition and Antitumor Activity of 4,7-Dihydro-6-nitroazolo[1,5-a]pyrimidines” (Molecules, 2022).

The subject of one assay is Hos cells. Nature of the assay: MTT test, osteosarcoma cells. The assay is classed as cell-based, human. The conditions noted are these: for Cytotoxicity index IC50 ± SE, Hos: MTT, 72 h incubation; for Selectivity ratio SR (HOS): normal/cancer cell (Hek-293 vs Hos). The procedure:
(§1) The studies were carried out on cultured cells of human glioblastoma (A-172, ATCC CRL 1620), human osteosarcoma (Hos, ATCC CRL 1543), human embryonic rhabdomyosarcoma (Rd, ATCC CRL 136), and human embryonic kidney 293 cells (Hek-293, ATCC CRL 1573) obtained from the Shared research facility “Vertebrate cell culture collection” (Institute of Cytology RAS, Saint-Petersburg, Russia). The cells were cultured using DMEM / F-12 medium containing 10% fetal bovine serum at 37°C, 5% CO2, and 98% humidity. Subculturing was performed using 0.25% trypsin solution when the culture reached ≥90% confluency.
(§2) The compounds were dissolved in DMSO. The solutions were diluted with DMEM/F-12 culture medium with 10% fetal bovine serum to the studied concentrations: 8, 16, 32, 64, 128, 256, 512, and 1024 µM. […] Cisplatin (cPt) was used as a positive control.
(§3) Cells were seeded in 96-well plates at a concentration of 4 × 10^3 cells per well. After 24 h, test compounds were added to the wells in a given concentration range. Then the cells were incubated for 72 h, after which a solution of MTT (3-(4,5-dimethyl-2-thiazolyl)-2,5-diphenyl-2H-tetrazolium bromide) was added to the cultures at 20 µL (5 mg/mL) to the well. After 2.5 h, the medium was removed from the wells and 200 µL of a mixture of DMSO/i-PrOH 1/1 was added. Optical density was measured on a plate spectrophotometer at a wavelength of 570 nm.
(§4) Statistical data processing was carried out in the RStudio program (Version 1.4.1106 © […] RStudio, PBC, Boston, MA, USA) using the R package (version 4.1.2). The cytotoxicity index (IC50) was calculated by plotting dose–response curves using the “drc” package.

Another assay deals with A-172 cells. Kind of assay: MTT test, glioblastoma cells. It counts as cell-based, human. The conditions noted are these: for Cytotoxicity index IC50 ± SE, A-172: MTT, 72 h incubation; for Selectivity ratio SR (A-172): normal/cancer cell (Hek-293 vs A-172). The procedure: as §1, §2, §3, §4
On the technique in general: Tetrazolium dyes change colour on reduction, which living cells bring about.

The next assay deals with T1, human recombinant CK2α1 (Homo sapiens, UniProt P68400).
T1 construct: purchased Promega V4482
T1 sequence (P68400 whole entry): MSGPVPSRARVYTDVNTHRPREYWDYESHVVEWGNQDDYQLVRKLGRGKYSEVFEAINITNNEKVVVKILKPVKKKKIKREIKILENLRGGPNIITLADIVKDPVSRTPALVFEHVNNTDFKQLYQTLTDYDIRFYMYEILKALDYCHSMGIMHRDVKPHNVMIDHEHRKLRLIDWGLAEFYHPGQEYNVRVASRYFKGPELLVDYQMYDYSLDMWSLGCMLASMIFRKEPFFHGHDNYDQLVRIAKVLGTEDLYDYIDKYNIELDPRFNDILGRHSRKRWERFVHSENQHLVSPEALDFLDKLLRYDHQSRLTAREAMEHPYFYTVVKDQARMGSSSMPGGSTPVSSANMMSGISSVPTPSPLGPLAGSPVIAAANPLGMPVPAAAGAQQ
Nature of the assay: CK2 ADP-Glo kinase assay. The conditions noted are these: for Effect on CK2 activity in initial screening (in words): initial screening at 50 μM. It counts as biochemical. The method, then:
Kinase activity was determined using the enzyme system CK2α1 (Promega V4482, Madison, WI, USA) and the ADP-Glo^TM kit (Promega V9101, Madison, WI, USA) in white 96-well plates (Nunc U96 Microwell 267350, Denmark). The reaction was carried out using 50 ng/well of N-GST labeled human recombinant CK2α1, 0.1 µg/µL bovine casein as a substrate, 10 μM ATP in 40 mM Tris buffer solution (pH 7.50) containing 20 mM MgCl2, 0.1 mg/mL of BSA, and 50 μM of DTT. Test compounds were added to 1.25% DMSO (final concentration 0.25%) and preincubated with kinase for 10 min. The reaction was carried out for 60 min at 25 °C in a thermostatically controlled PST-60HL shaker (Biosan. […], Latvia). ATP-dependent luminescence was measured at an integration time of 1000 ms using the Infinite M200 PRO microplate reader (Tecan. Austria). The ATP-competitive inhibitor Staurosporin (CAS 62996–74-1, Alfa Aesar J62837, 99+%) was used as a positive control. The experiments were performed in two parallels.
For orientation: ADP-Glo turns the ADP formed in a reaction into a luminescent signal.

Another assay relates to Rd cells. Nature of the assay: MTT test, embryonic rhabdomyosarcoma cells. It counts as cell-based, human. The conditions noted are these: for Cytotoxicity index IC50 ± SE, Rd: MTT, 72 h incubation; for Selectivity ratio SR (RD): normal/cancer cell (Hek-293 vs Rd). The method, then: as §1, §2, §3, §4
The subject of another assay is Hek-293 cells. Kind of assay: MTT test, human embryonic kidney cells. It counts as cell-based. The conditions noted are these: 72 h incubation. The method, then: as §1, §2, §3, §4

“3-Cyano-2-methylthio-6-nitro-7-(4ʹ-nitrophenyl)-4,7-dihydropyrazolo[1,5-a]pyrimidine [Compound 5o]”: in the assay on Hos cells, the “Cytotoxicity index IC50 ± SE, Hos” value is reported as 28.09 ± 3.91 µM and the “Selectivity ratio SR (HOS)” value is 6. In the assay on A-172 cells, the “Cytotoxicity index IC50 ± SE, A-172” value is 22.49 ± 2.93 µM and the “Selectivity ratio SR (A-172)” value worked out at 7.5. In addition, the “Effect on CK2 activity in initial screening (in words)” value (“Effect on CK2 activity” for short) at human recombinant CK2α1 was “paradoxically enhance CK2 activity”. Moreover, in the assay with Rd cells, the “Cytotoxicity index IC50 ± SE, Rd” value turned out to be 36.33 ± 3.40 µM and the “Selectivity ratio SR (RD)” value is given as 4.7.

For the molecule “5-Methyl-2-methylthio-6-nitro-7-(4ʹ-nitrophenyl)-4,7-dihydro-1,2,4-triazolo[1,5-a]pyrimidine [Compound 6c]”, in the assay on Hos cells, the “Cytotoxicity index IC50 ± SE, Hos” value is reported as 40.88 ± 4.11 µM and the “Selectivity ratio SR (HOS)” value came out at 5.6. In the assay with A-172 cells, the “Cytotoxicity index IC50 ± SE, A-172” value was determined as 41.27 ± 4.10 µM and the “Selectivity ratio SR (A-172)” value is 5.5. Moreover, the “Effect on CK2 activity” value at human recombinant CK2α1 is reported as “paradoxically enhance CK2 activity”. For the same molecule, in the assay on Rd cells, the “Cytotoxicity index IC50 ± SE, Rd” value is 71.15 ± 6.84 µM and the “Selectivity ratio SR (RD)” value is reported as 3.2.

Turning to `CC1=C([N+](=O)[O-])C(c2cccs2)n2nccc2N1` (stereo not drawn) [Compound 5d, 6-Nitro-5-methyl-7-(thiophen-2ʹ-yl)-4,7-dihydropyrazolo[1,5-a]pyrimidine], the “Cytotoxicity index IC50 ± SE, Hos” value in the assay on Hos cells stood at 103.53 ± 18.27 µM. Also, the “Cytotoxicity index IC50 ± SE, Hek-293” value in the assay on Hek-293 cells amounted to 543.74 ± 70.79 µM. For the same molecule, the “Cytotoxicity index IC50 ± SE, A-172” value in the assay on A-172 cells is recorded as 28.91 ± 4.58 µM. For the same molecule, the “Cytotoxicity index IC50 ± SE, Rd” value in the assay with Rd cells was determined as 105.54 ± 16.81 µM.

As to `CCOC(=O)c1cnn2c1NC(CC)=C([N+](=O)[O-])C2c1ccccc1` (stereo not drawn) [Compound 5e, 3-Etoxycarbonyl-5-ethyl-6-nitro-7-phenyl-4,7-dihydropyrazolo[1,5-a]pyrimidine], the “Cytotoxicity index IC50 ± SE, Hos” value with Hos cells amounted to 126.60 ± 7.17 µM. Also, the “Cytotoxicity index IC50 ± SE, Hek-293” value with Hek-293 cells is 222.84 ± 6.33 µM. Also, the “Cytotoxicity index IC50 ± SE, A-172” value with A-172 cells came out at 256.72 ± 12.20 µM. In addition, the “Cytotoxicity index IC50 ± SE, Rd” value in the assay on Rd cells stood at 99.46 ± 4.43 µM.

As a reminder, the IC50 is the concentration that inhibits the measured activity by half. What is called inhibition is the change of the read-out against control, counted positive when it falls. As to `CCOC(=O)c1cnn2c1NC(CC)=C([N+](=O)[O-])C2c1ccc([N+](=O)[O-])cc1` (stereo not drawn) [Compound 5f, 3-Etoxycarbonyl-5-ethyl-6-nitro-7-(4ʹ-nitrophenyl)-4,7-dihydropyrazolo[1,5-a]pyrimidine], in the assay with Hos cells, the “Cytotoxicity index IC50 ± SE, Hos” value is 170.14 ± 11.16 µM. Moreover, the “Cytotoxicity index IC50 ± SE, Hek-293” value in the assay with Hek-293 cells is listed as 35.86 ± 4.30 µM. In the assay on A-172 cells, the “Cytotoxicity index IC50 ± SE, A-172” value is 212.36 ± 42.85 µM. At human recombinant CK2α1, the IC50 worked out at 52.8 µM and the “Effect on CK2 activity” value is given as “Moderate inhibition”. For the same molecule, the “CK2 inhibitory potency in dose-response study (in words)” value on human recombinant CK2α1 (dose-response study) is listed as “micromolar CK2 inhibitors”. Moreover, the “Hill Coefficient” value on human recombinant CK2α1 (dose-response study of CK2 inhibition) is −1.369. In addition, the inhibition at 50 µM on human recombinant CK2α1 (read-out: CK2 Inhibition at 50 μM, m ± SD (%)) came to 53.81 ± 0.42%. Also, in the assay with Rd cells, the “Cytotoxicity index IC50 ± SE, Rd” value worked out at 121.97 ± 13.53 µM.

`N#Cc1cnn2c1NC=C([N+](=O)[O-])C2c1ccccc1` (stereo not drawn) [Compound 5g, 3-Cyano-6-nitro-7-phenyl-4,7-dihydropyrazolo[1,5-a]pyrimidine]: in the assay on Hos cells, the “Cytotoxicity index IC50 ± SE, Hos” value came out at 181.14 ± 7.47 µM. In addition, the “Cytotoxicity index IC50 ± SE, Hek-293” value in the assay on Hek-293 cells was 483.09 ± 37.61 µM. Besides, in the assay with A-172 cells, the “Cytotoxicity index IC50 ± SE, A-172” value worked out at 171.74 ± 8.63 µM. In addition, the “Effect on CK2 activity” value at human recombinant CK2α1 is on record as “paradoxically enhance CK2 activity”. Besides, the “Cytotoxicity index IC50 ± SE, Rd” value in the assay with Rd cells was 149.72 ± 11.01 µM.
